Entries after “also recorded” stand apart in the source; their conditions may differ. [5mC] = 5-methylcytosine Some results are limits rather than exact numbers.

Series [1] has as its target T1, DCMTase (Mus musculus, UniProt P13864).
T1 construct: DCMTase was purified from mouse erythroleukemia cells as previously described; endogenous in cells; host or cells: mouse erythroleukemia (MEL) cells; enzyme purified from them
Put plainly: Dead-end inhibition of poly(dI.dC:dI.dC) methylation by single-stranded DNA. Format: biochemical. The protocol: (§1) After preincubation at room temperature for up to 10 minutes, reactions were initiated by the addition of poly(dI.dC:dI.dC) and, if indicated, inhibitor DNA or reaction products. […] Single-stranded DNA was heated to 90° C. and quick cooled on ice, prior to initiation of the reaction. Freeze-thawed DNA produced equivalent results. Incubations were at 37° C. for 60 minutes. The poly(dI.dC:dI.dC) concentrations were 2.0, 4.0, 8.0, 16, 35, 80, 160, 250, 400, 700 and 1000 pM. In some experiments, GC-box a/b was the substrate, using 100 nM DCMTase and DNA concentrations of 0.20, 0.40, 1.0, 2.0, 4.0, 8.0, 15, 23 and 35 μM. The reaction was stopped after 60 minutes by transferring 20 μL of the reaction onto a DE 81 filter paper that was processed as described (Flynn et al., 1996). The radioactivity above the background, determined from assays without added poly(dI.dC:dI.dC), was converted to initial velocities and expressed as picomoles of methyl groups transferred to poly(dI.dC:dI.dC) per hour and plotted in double reciprocal form.
The poly(dI.dC:dI.dC) concentrations were 10, 13, 20, 40 and 100 pM. The GC-box b concentrations were: diamonds, 0; circles, 0.75 μM; triangles, 1.5 μM; squares, 5.0 μM. Incubations were at 37° C. for 60 minutes.
The poly(dI.dC:dI.dC) concentrations were 1.5, 3.0, 7.5, 15 and 20 pM. The GC-box b^MET concentrations were: squares, 0; circles, 10 nM; diamonds. 20 nM; triangles, 40 nM. Incubations were at 37° C. for 60 minutes.
The GC-box b^MET concentrations were: squares, 0; circles, 20 nM; diamonds, 40 nM; triangles, 80 nM. Incubations were at 37° C. for 60 minutes.
(§2) The Michaelis-Menton equation was used for studies into DNA length contributions to catalysis using KaliedaGraph 2.1.2 (Synergy Software). For mechanistic determinations, the nomenclature used is that of Cleland, W. W., 1963a. Biochimi. Biophysi. Acta 67:104-137. All steady-state data were analyzed using regression analyses of the appropriate initial velocity equation, listed below, using the Cleland programs (Cleland, W. W., 1979, Statistical analysis of enzyme kinetic data. Methods in Enzymol. 63:103-138).
(§3) The algorithms perform a non-linear least squares fit to the entire data set. Mechanistic determinations were made by comparison of the sigma values associated with the fit to each equation. The standard errors associated with fitted parameters and graphical analysis of the experimental data scattered around the calculated best fit lines were also considered in making an assignment.

For series [2], the target named is T1, DCMTase. Particulars: previous kinetic study (Flynn et al., 1996); cited from earlier work.
The test system of series [3] is mouse erythroleukemia (MEL) cells. Description: Anti-proliferative effects on MEL cells. It is filed as cell-based. Conditions: for growth rate of MEL cells: incubation with inhibitor, concentration dependent.
The target of series [4] is T1, DCMTase. Description: Product inhibition studies, steady-state. Format: biochemical. Details: key to Type of Inhibition: C: competitive; NC: noncompetitive; UC: uncompetitive inhibition. The protocol:
as §1
The AdoHcy concentrations were: squares, 0; diamonds, 0.75 ,μM; circles, 1.5 μM; triangles, 3.0 μM; notched squares, 6.0 μM. Incubations were at 37° C. for 60 minutes.
For the double reciprocal plot of AdoHcy product inhibition with varying poly(dI.dC:dI.dC) concentrations (FIGS. 17A-C), reactions contained 20 nM DCMTase in 100 mM Tris pH 8.0, 10 mM EDTA, 10 mM DTT, 200 μg/mL BSA. Incubations were at 37° C. for 60 minutes. The poly(dI.dC:dI.dC) concentrations were 2.5, 5.0, 10, and 20 pM. The AdoHcy concentrations were: squares, 0; diamonds, 15 μM; circles, 30 μM.
The poly(dId^mC:dId^mC) concentrations were: squares, 0; diamonds, 5.0 pM; circles, 10 pM; triangles, 20 pM. Incubations were at 37° C. for 60 minutes. Experimental data are shown scattered around lines derived from a fit to equation 5 for noncompetitive inhibition.
200 μg/mL BSA. Incubations were at 37° C. for 60 minutes. The poly(dI.dC:dI.dC) concentrations were 20, 40, 80, 120 and 160 pM. The poly(dId^mC:dId^mC) concentrations were: squares, 0; triangles, 34 pM; circles, 45 pM; diamonds, 68, notched squares, 90 pM. Experimental data are shown scattered around lines. In FIG. 19A, lines are derived from a fit to equation 4 for competitive inhibition. In FIG. 19B, lines are derived from a fit to equation 5 for noncompetitive inhibition. Both fittings are not acceptable.
as §2, §3

The target in series [5] is DNA cytosine-5 methyltransferase (DCMTase, Dnmt1) (Mus musculus) (UniProt P13864). Description: EMSA. Particulars: pooled generation-5 sequences vs starting pool. On the technique in general: A gel shift assay detects complexes by their altered migration in electrophoresis.
For series [6] the target is unchanged. Put plainly: inhibition.
The target in series [7] is T2, DNA cytosine-5 methyltransferase (DCMTase, Dnmt1) (Mus musculus, UniProt P13864 P13864:1-1620). Put plainly: EMSA; unit printed as mM (text indicates micromolar); 100 nM enzyme, DNA varied; Hepes pH 7.4, 10 mM EDTA, on ice, no AdoMet. Particulars: tags: none; purified from mouse erythroleukemia (MEL) cells; label: 32P. The protocol: (§4) Gel mobility shift assays (GMSA) were performed with minor revisions to the original procedures (Fried, M., & Crothers, D. M., 1981, Equilibria and kinetics of the lac repressor-operator interactions by polyacrylamide gel electrophoresis, Nucleic Acids Res. 9:6505-6525; Garner, M. M. & Revzin, A., 1981, A gel electrophoresis method for quantifying the binding proteins to specific DNA regions: applications to components of the Escherichia coli lactose operon regulatory system, Nucleic Acids Res. 13:3047-3060). […]
(§5) Steady-state kinetic analyses of the DCMTase with the same 30 base-pair DNA substrates used in these studies indicate that Kₘ^DNA is 1000- to 50,000-fold higher (Flynn, J., et al., 1996, Murine DNA cytosine-C5 methyltransferase: Pre-steady- and steady-state kinetic analyses with regulatory DNA sequences, Biochemistry 35:7308-7315) than the DNA concentrations used to generate FIG. 2 and used by Reale et al, 1995, supra. […] Therefore, the stability of protein:DNA was determined by keeping the enzyme at a constant concentration (100 nM) and varying the amount of added DNA (Dubey & Roberts, 1992, supra).

In series [8] the target is T2, DNA cytosine-5 methyltransferase …. Description: EMSA; unit printed as mM (text indicates micromolar); at limit of resolution. Conditions: tags: none; purified from mouse erythroleukemia (MEL) cells. The protocol:
as §4, §5

For series [9] the target is unchanged. Put plainly: EMSA; unit printed as mM (text indicates micromolar). Particulars: tags: none, purified from mouse erythroleukemia (MEL) cells. The protocol: Gel mobility shift assays (GMSA) were performed with minor revisions to the original procedures (Fried, M., & Crothers, D. M., 1981, Equilibria and kinetics of the lac repressor-operator interactions by polyacrylamide gel electrophoresis, Nucleic Acids Res. 9:6505-6525; Garner, M. M. & Revzin, A., 1981, A gel electrophoresis method for quantifying the binding proteins to specific DNA regions: applications to components of the Escherichia coli lactose operon regulatory system, Nucleic Acids Res. 13:3047-3060). All reactions were done in 100 mM Hepes pH 7.4, 10 mM EDTA, 10 mM DTT, […], 5% glycerol using the indicated P-labeled DNA and DCMTase concentrations, incubated on ice for 5 minutes and loaded on a 1×TBE(89 mM Tris-HCl pH 8.3, 89 mM boric acid, 2 mM EDTA), 6% polyacrylamide gel. Electrophoresis was done at 250 V, 9 mA for 2 hours at 4° C. and the dried gel was exposed to film overnight. The reaction conditions for buffer, temperature, incubation time, cofactor addition and gel composition have all been optimized. Only slightly better complex resolution was obtained under the listed conditions compared to a 10 minute incubation at 37° C. prior to gel loading at room temperature and containing either cofactor S-adenosyl-L-methionine, product S-adenosyl-L-homocysteine, or the AdoMet analog sinefungin. Hepes reaction buffer at pH 7.4 produced sharper banding than Tris-HCl at pH 8.0. […] Subsequent assays used a limiting and constant enzyme concentration with varying DNA concentrations.
as §5

T1 sequence (P13864 whole entry): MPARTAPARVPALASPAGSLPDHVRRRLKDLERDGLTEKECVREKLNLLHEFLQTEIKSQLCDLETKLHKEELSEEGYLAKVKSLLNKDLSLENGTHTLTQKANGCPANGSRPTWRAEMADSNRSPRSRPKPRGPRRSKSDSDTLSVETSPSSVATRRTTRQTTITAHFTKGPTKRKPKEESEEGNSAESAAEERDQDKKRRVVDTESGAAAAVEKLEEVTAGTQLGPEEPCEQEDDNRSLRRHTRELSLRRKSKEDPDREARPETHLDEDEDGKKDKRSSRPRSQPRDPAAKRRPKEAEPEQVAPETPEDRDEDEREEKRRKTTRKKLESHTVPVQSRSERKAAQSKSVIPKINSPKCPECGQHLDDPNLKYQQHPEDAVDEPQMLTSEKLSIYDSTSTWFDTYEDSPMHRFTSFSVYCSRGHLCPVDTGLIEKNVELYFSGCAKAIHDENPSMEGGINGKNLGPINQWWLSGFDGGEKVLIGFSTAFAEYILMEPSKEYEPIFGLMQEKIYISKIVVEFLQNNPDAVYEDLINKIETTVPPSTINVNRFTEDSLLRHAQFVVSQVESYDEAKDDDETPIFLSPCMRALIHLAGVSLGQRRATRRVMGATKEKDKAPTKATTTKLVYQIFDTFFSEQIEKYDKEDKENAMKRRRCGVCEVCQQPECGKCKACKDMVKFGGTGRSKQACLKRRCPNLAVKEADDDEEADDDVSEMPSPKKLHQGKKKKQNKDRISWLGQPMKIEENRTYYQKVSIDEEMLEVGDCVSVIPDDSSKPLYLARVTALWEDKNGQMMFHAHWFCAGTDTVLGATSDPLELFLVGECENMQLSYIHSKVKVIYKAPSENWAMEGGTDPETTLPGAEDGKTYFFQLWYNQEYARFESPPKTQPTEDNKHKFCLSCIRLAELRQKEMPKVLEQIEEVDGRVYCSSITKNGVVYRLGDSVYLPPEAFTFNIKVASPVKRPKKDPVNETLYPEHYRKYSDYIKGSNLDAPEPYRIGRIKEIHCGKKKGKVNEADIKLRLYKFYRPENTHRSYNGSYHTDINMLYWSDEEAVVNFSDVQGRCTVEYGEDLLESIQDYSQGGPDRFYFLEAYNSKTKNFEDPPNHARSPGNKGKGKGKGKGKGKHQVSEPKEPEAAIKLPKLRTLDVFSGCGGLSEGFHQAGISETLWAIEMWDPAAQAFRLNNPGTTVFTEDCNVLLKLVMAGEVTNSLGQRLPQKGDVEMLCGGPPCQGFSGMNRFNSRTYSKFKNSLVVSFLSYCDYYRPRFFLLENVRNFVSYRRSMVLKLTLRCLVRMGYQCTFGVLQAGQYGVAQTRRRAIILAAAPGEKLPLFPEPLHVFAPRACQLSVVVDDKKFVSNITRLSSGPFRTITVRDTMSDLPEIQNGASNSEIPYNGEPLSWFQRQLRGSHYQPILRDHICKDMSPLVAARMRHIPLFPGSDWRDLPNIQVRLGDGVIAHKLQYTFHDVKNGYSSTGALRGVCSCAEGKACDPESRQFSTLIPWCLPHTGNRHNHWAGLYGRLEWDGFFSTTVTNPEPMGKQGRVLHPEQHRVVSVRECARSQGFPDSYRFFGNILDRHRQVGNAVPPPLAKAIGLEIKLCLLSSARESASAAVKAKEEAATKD
T2 sequence (P13864 whole entry, one chain of several): as the sequence (P13864 whole entry) above
DNA cytosine-5 methyltransferase (DCMTase, Dnmt1) (Mus musculus), sequence (P13864 whole entry): as above

On to “5′-CTGGATCCTTGCCCCGCCCCTTGAATTCCC-3′ (DNA, backbone not given here) [GC-box b]”, for which, in [1], the “Mode of Inhibition” value is “Noncompetitive with poly(dIdC:dIdC)” and the “alpha factor, Kii/Kis” value is listed as 1.9. The Ki in series [1] (poly(dI.dC:dI.dC) varied, noncompetitive fit, 15 μM AdoMet, read-out: Kii) stood at 6800 nM. In addition, the Ki in series [1] (poly(dI.dC:dI.dC) varied, noncompetitive fit, 15 μM AdoMet, read-out: Kis) worked out at 3600 nM. Further, the “enzyme activity with single-stranded substrate” value in [2] is given as “no detectable enzyme activity”.
“5′-CTGGATCCTTGCCC^mCGCCCCTTGAATTCCC-3′ (DNA CTGGATCCTTGCCCCGCCCCTTGAATTCCC; DNA, [5mC] at 15, backbone not given here) [GC-box b^MET]”: the “Mode of Inhibition” value in series [1] is recorded as “Uncompetitive with poly(dIdC:dIdC); also recorded: Competitive with Adomet”. Also, the Ki in series [1] (AdoMet varied, constant 50 pM poly(dI.dC:dI.dC), competitive fit, read-out: Inhibition Constant, slope derived (Kis), equation 4) is 25 nM; in series [1] (Kii and Kis, read-out: the two inhibition constants in agreement), approximately 20 nM; in series [1] (poly(dI.dC:dI.dC) varied, uncompetitive fit, 10 μM AdoMet, read-out: Inhibition Constant, intercept derived Kii, equation 6), 20 nM; in series [1] (read-out: KI, dissociation constant from the DCMTase:poly(dI.dC:dI.dC) complex), 2.5 nM. Moreover, in series [1] (compared with Example 1 binding), the “lower affinity for free enzyme in the absence of poly(dI.dC:dI.dC)” value is reported as 120 fold. In series [1] (single 5-mC substitution), the “lower inhibition constant (increased inhibition) versus GC-box b” value is 200 fold. Moreover, in series [3], the “growth rate of MEL cells” value is listed as “slows down the growth rate”.
As to “5′-GGGAATTCAAGGGGCGGGGCAAGGATCCAG-3′ (DNA, backbone not given here) [GC-box a]”, the “enzyme activity with single-stranded substrate” value in [2] was “no detectable enzyme activity”.
As to `Nc1ncnc2c1ncn2[C@@H]1O[C@H](CSCC[C@H](N)C(=O)O)[C@@H](O)[C@H]1O` [AdoHcy, S-adenosyl homocysteine], the Ki stood at 1400 nM in series [4] (varied AdoMet, fixed poly(dIdC:dIdC), competitive, read-out: Inhibition Constant Kis); 2500 nM in series [4] (varied poly(dI.dC:dI.dC), low AdoMet concentrations, read-out: Kii, noncompetitive model); 2000 nM in [4] (varied poly(dI.dC:dI.dC), low AdoMet concentrations, read-out: Kii, uncompetitive model); 63000 nM in series [4] (varied poly(dI.dC:dI.dC), low AdoMet concentrations, read-out: Kis, noncompetitive model). For the same molecule, the “Type of Inhibition” value is recorded as “C” in series [4] (varied substrate AdoMet, fixed substrate IC) and “NC/UC” in series [4] (varied substrate IC, fixed substrate AdoMet).
As to “GC-box p^MET: SEQ ID NO:10 with a phosphorothioate backbone (DNA CTGGATCCTTGCCCCGCCCCTTGAATTCCC; listed as DNA, chemistry not fully specified)”, the “occurrence of large multi-nucleate cells among regularly sized cells” value in series [3] (five days of incubation, 10 micromolar) is given as “about one in fifty”. Besides, the “growth rate of MEL cells” value in [3] is “slows down the growth rate”.
In turn, “GGGAATTCATGGATCCTAAANNNNNNNNNNNNCGNNNNNNNNNNNNTTTCAAGCTTGTGATTCCC (double strand) [generation-5 selected pool]” had a binding signal (fold tighter than starting pool) in [5] of 2.
Regarding “poly(dI.dC:dI.dC), average 6250 or 5000 bp”, the Ki in series [6] (substrate inhibition, 6250 bp, apparent Km 5.5 +/- 0.9 pM, true Km 36 +/- 5 pM) is 1 nM.
With poly(dI.dmC:dI.dmC), fully methylated, the Ki in [6] (5mC at all M.SssI sites, Kis, noncompetitive product inhibition vs AdoMet, Kii 30 +/- 12 pM) came to 0.0053 nM.

B1: GC-box a/bMET (dsDNA)
DNA 1: GGGAATTCAAGGGGCGGGGCAAGGATCCAG
DNA 2: CTGGATCCTTGCCCCGCCCCTTGAATTCCC
modifications: 5mC at position 15 of strand b (hemi-methylated CpG)
B1 showed a dissociation constant (Kd) in series [7] of 360 nM.

B2: CRE a (ssDNA)
DNA: GGGAATTCAAATGACGTCAAAAGGATCCAG
Regarding B2, in series [8], the Kd is more than 50000 nM.

B3: CRE b (ssDNA)
DNA: CTGGATCCTTTTGACGTCATTTGAATTCCC
With B3, the dissociation constant (Kd) in series [8] is more than 50000 nM.

B4: CRE a/b (dsDNA)
DNA 1: GGGAATTCAAATGACGTCAAAAGGATCCAG
DNA 2: CTGGATCCTTTTGACGTCATTTGAATTCCC
With B4, the Kd in [9] (label: 32P) was 1500 nM.

B5: CRE aMET/b (dsDNA)
DNA 1: GGGAATTCAAATGACGTCAAAAGGATCCAG
DNA 2: CTGGATCCTTTTGACGTCATTTGAATTCCC
modifications: 5mC at position 15 of strand a (hemi-methylated CpG)
As for B5, the dissociation constant Kd in [9] (label: 32P) was found to be 1000 nM.

B6: GC-box a (ssDNA)
DNA: GGGAATTCAAGGGGCGGGGCAAGGATCCAG
Consider B6, for which binding in series [9] was put at a Kd of 1200 nM.

For orientation: Kd means a measure of binding affinity in units of concentration.

The values are drawn from patent publication US20030114402A1, “Modulators of DNA cytosine-5 methyltransferase and methods for use thereof” (The Regents of the University of California, priority 1997, published 2003).
